From PMC6213923, “Meroterpenoids and Isocoumarinoids from a Myrothecium Fungus Associated with Apocynum venetum” (Marine Drugs, 2018) come the findings set out here.

SMILES strings stand for the structures. pIC50: −log10 of the molar value.

System in the first series: not given
Test: not given
Settings: not given
One may read the melting point as the temperature, or range, at which the solid turns liquid. In the case of `COc1cc(O)c2c(=O)occ(C(=O)CO)c2c1` [Compound 7, Myrothelactone C], the melting point fell in the range of 160 to 161 °C.

The target in a further series is human-sourced α-glucosidase recombinant expressed in Saccharomyces cerevisiae. Put plainly: α-glucosidase inhibitory assay (pNPG substrate). Particulars: PBS pH 6.8, 37 °C, absorbance at 405 nm, preliminarily investigated, read-out: α-glucosidase inhibition IC50. It is filed as biochemical. As for the experimental part:
The α-glucosidase inhibitory activity of 1–13 was preliminarily investigated.
The sample was dissolved in sodium phosphate buffer (PBS, pH 6.8) at three concentrations. 10 μL of the sample solution, 20 μL of 2.5 mM pNPG solution (in phosphate buffer) and 20 μL of PBS were mixed in a 96-well microplate and incubated at 37 °C for 5 min. A volume of 10 μL of α-glucosidase diluted to 0.2 U/mL by 0.01 M PBS was then added to each well. After incubating at 37 °C for 15 min, the absorbance at 405 nm was recorded by a Spectra max 190 micro plate reader (Molecular Devices Inc., San Jose, CA, USA). The blank was prepared by adding phosphate buffer instead of the α-glucosidase and the positive control was acarbose. […] The inhibition (%) was calculated as [1 − (ODdrug/ODblank)] × 100%.
As usually defined, the pIC50 is −log10 of the IC50, conventionally taken in molar units. With `CC(=O)O[C@H]1CC=C2[C@@H](CC[C@@H](C)[C@@]2(C)Cc2c(O)cc(CO)c(C=O)c2O)C1(C)C` [Compound 3, Myrothecisin C], the pIC50 was 4.24. On to `C[C@H]1O[C@H](O[C@H]2[C@H](O)[C@@H](O)[C@@H](O[C@H]3[C@H](O)[C@@H](O)C(O)O[C@@H]3CO)O[C@@H]2CO)[C@H](O)[C@@H](O)[C@@H]1N[C@H]1C=C(CO)[C@@H](O)[C@H](O)[C@H]1O` (stereo partly shown) [acarbose, reference compound], for which the pIC50 is 3.33.

Take `COc1cc(O)c2c(=O)occ(C(=O)CO)c2c1` [Compound 7, Myrothelactone C]: the pIC50 was 4.44. In the case of `CC(=O)O[C@@H]1C[C@@]2(C)[C@@H](CC[C@@H](C)[C@]23Cc2c(cc(CO)c(C=O)c2O)O3)C(C)(C)[C@H]1O` [Compound 1, Myrothecisin A], the pIC50 was 3.30. Consider `CC(=O)O[C@H]1[C@H](O)C[C@@]2(C)[C@@H](CC[C@@H](C)[C@]23Cc2c(cc(CO)c(C=O)c2O)O3)C1(C)C` [Compound 2, Myrothecisin B], for which the pIC50 was 3.18. In the case of `C[C@@H]1CC[C@@H]2C(=CC[C@H](O)C2(C)C)[C@]1(C)Cc1c(O)cc(CO)c(C=O)c1O` [Compound 4, Myrothecisin D], the pIC50 was 3.70. Still for that read-out and setting: next, `Cc1c(CO)oc(=O)c2c(O)cc(O)cc12` [Compound 10, acremonone G]: 3.43; `COc1cc(O)c2c(=O)occ(C(O)CO)c2c1` (stereo not shown) [Compound 5, Myrothelactone A]: 3.49. Same read-out and setting: next, `COc1cc(O)c2c(=O)oc(CO)c(CO)c2c1` [Compound 9, tubakialactone B]: 4.59.
